The record followed here is patent CN105777727A, “2-噻吩吡啶类化合物及其用途” (Shenyang Sinochem Agrochemicals R&D Co Ltd, priority 2014, dated 2016).

For this experiment, the system named is cucumber anthracnose (黄瓜炭疽病). Put plainly: In vivo protective activity against cucumber anthracnose (potted plants, inoculation 24 h after spraying).

In the case of `O=C(NCCc1ccc(F)cc1)c1ccc(-c2cccs2)nc1CCl` [24.3], the control effect by setting is: (6.5 mg/L) 98%; (25 mg/L) 100%; (100 mg/L) greater than 98%; (400 mg/L) 100%.
